The values that follow come from patent publication US20260285850A1, “SUBSTITUTED OXAZOLIDINONES AND IMIDAZOLINONES AS HERBICIDES” (FMC CORPORATION, priority 2023, published 2026).

Format in all cases: in vivo
In experiment [1] the test system is horseweed (Erigeron canadensis). Briefly: Test A postemergence application, visual injury rating 0-100. Particulars: Postemergence, 1000 g ai/ha, 0 to 100 scale, 10 days. The procedure, abridged:
(§1)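 Plants in a loam and sand soil blend were treated with each test chemical, in a non-phytotoxic solvent system including surfactant, either sprayed on seeded soil before emergence or applied after emergence at the one- to two-leaf stage. Ten days later in the greenhouse, plants were compared with untreated controls and visually rated from 0 (no effect) to 100 (complete control).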

For experiment [2], the system named is kochia (Bassia scoparia). Described as above. Particulars: Postemergence, 1000 g ai/ha, 0 to 100 scale, 10 days. The procedure, abridged: as §1
Experiment [3] relates to galium (catchweed bedstraw, Galium aparine). The experiment is described as above. Particulars: Postemergence, 1000 g ai/ha, 0 to 100 scale, 10 days. In short, it runs like this:
as §1

For experiment [4], the system named is blackgrass (Alopecurus myosuroides). The description is as above. Particulars: Postemergence, 1000 g ai/ha, 0 to 100 scale, 10 days. The procedure, abridged: as §1
The test system of experiment [5] is foxtail, giant (giant foxtail, Setaria faberi). The description is as above. Particulars: 1000 g ai/ha, 0 to 100 scale, 10 days. The procedure, abridged: as §1
Experiment [6] deals with palmer (palmer amaranth, palmer pigweed, Amaranthus palmeri). Described as above. Particulars: Postemergence, 1000 g ai/ha, 0 to 100 scale, 10 days. The procedure, abridged:
as §1

Experiment [7] deals with ragweed (common ragweed, Ambrosia artemisiifolia). The description is as above. Particulars: Postemergence, 1000 g ai/ha, 0 to 100 scale, 10 days. In short, it runs like this: as §1
Experiment [8] relates to ryegrass, Italian (italian ryegrass, Lolium multiflorum). Described as above. Particulars: Postemergence, 1000 g ai/ha, 0 to 100 scale, 10 days. The procedure, abridged:
as §1

Experiment [9] concerns barnyardgrass (Echinochloa crus-galli). The experiment is described as above. Particulars: Postemergence, 1000 g ai/ha, 0 to 100 scale, 10 days. In short, it runs like this: as §1
In experiment [10] the test system is kochia (Bassia scoparia). Briefly: Test A preemergence soil spray, visual injury rating 0-100. Particulars: 1000 g ai/ha, 10 days, 0 = no effect, 100 = complete control. In short, it runs like this: as §1
Experiment [11] has as its system blackgrass (Alopecurus myosuroides). Described as above. Particulars: 1000 g ai/ha, 10 days, 0 = no effect, 100 = complete control. The procedure, abridged:
as §1

Experiment [12] relates to foxtail, giant (giant foxtail, Setaria faberi). The experiment is described as above. Particulars: 1000 g ai/ha, 10 days, 0 = no effect, 100 = complete control. The procedure, abridged: as §1
Experiment [13] concerns palmer (palmer amaranth, palmer pigweed, Amaranthus palmeri). The description is as above. Particulars: 1000 g ai/ha, 10 days, 0 = no effect, 100 = complete control. In short, it runs like this:
as §1

For experiment [14], the system named is ragweed (common ragweed, Ambrosia artemisiifolia). The description is as above. Particulars: 1000 g ai/ha, 10 days, 0 = no effect, 100 = complete control. The procedure, abridged: as §1
In experiment [15] the test system is ryegrass, Italian (italian ryegrass, Lolium multiflorum). The experiment is described as above. Particulars: 1000 g ai/ha, 10 days, 0 = no effect, 100 = complete control. In short, it runs like this: as §1
Experiment [16] has as its system barnyardgrass (Echinochloa crus-galli). Described as above. Particulars: 1000 g ai/ha, 10 days, 0 = no effect, 100 = complete control. The procedure, abridged:
as §1

Experiment [17] concerns sedge, umbrella (small-flower umbrella sedge, Cyperus difformis). In words: Test B flooded paddy test, visual plant response rating 0-100. Particulars: 250 g ai/ha, Flood, applied to paddy water, evaluated after 13 days. The procedure, abridged: (§2)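 2-leaf plants; flood 3 cm over soil; compound dosed into paddy water; depth kept constant; greenhouse 13 d; visual scoring vs controls. Dash = no result.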

Experiment [18] relates to rice (Oryza sativa). The description is as above. Particulars: 250 g ai/ha, Flood, applied to paddy water, evaluated after 13 days. In short, it runs like this:
as §2

For experiment [19], the system named is barnyardgrass (Echinochloa crusgalli). Described as above. Particulars: 250 g ai/ha, Flood, applied to paddy water, evaluated after 13 days. In short, it runs like this: as §2
The test system of experiment [20] is ducksalad (Heteranthera limosa). Described as above. Particulars: 250 g ai/ha, Flood, applied to paddy water, evaluated after 13 days. The procedure, abridged:
as §2

Take `CCCS(=O)(=O)NC(=O)C1C=CC(NC(=O)C2(C)CN(c3cc(F)cc(F)c3)C(=O)O2)C1` (stereo not shown) [Compound 50]: the “Horseweed plant response rating” value in [1] is given as 70. In experiment [2], the “Kochia plant response rating” value is recorded as 70. Besides, the “Galium plant response rating” value in experiment [3] came to 80. Moreover, in [4], the “Blackgrass plant response rating” value is reported as 90. Besides, the “Foxtail, Giant plant response rating” value in experiment [5] was 90. Moreover, in [6], the “Amaranth, Palmer plant response rating” value is on record as 90. Further, in experiment [7], the “Ragweed plant response rating” value is listed as 70. In experiment [8], the “Ryegrass, Italian plant response rating” value is 100. The “Barnyardgrass plant response rating” value in experiment [9] is 90. In experiment [10], the “Kochia plant response rating (0 to 100 scale)” value was found to be 100. Also, in experiment [11], the “Blackgrass plant response rating (0 to 100 scale)” value was determined as 90. In addition, the “Foxtail, Giant plant response rating (0 to 100 scale)” value in experiment [12] is reported as 90. For the same compound, the “Amaranth, Palmer / Pigweed, Palmer plant response rating (0 to 100 scale)” value in experiment [13] is on record as 100. Besides, the “Ragweed plant response rating (0 to 100 scale)” value in experiment [14] amounted to 50. Besides, in experiment [15], the “Ryegrass, Italian plant response rating (0 to 100 scale)” value came out at 100. The “Barnyardgrass plant response rating (0 to 100 scale)” value in experiment [16] was found to be 90. For the same compound, in experiment [17], the “Plant response rating, Sedge, Umbrella (0 to 100 scale, 0 is no effect and 100 is complete control)” value was 60. In experiment [18], the “Plant response rating, Rice (0 to 100 scale, 0 is no effect and 100 is complete control)” value came to 75. Further, the “Plant response rating, Barnyardgrass (0 to 100 scale, 0 is no effect and 100 is complete control)” value in experiment [19] turned out to be 60. Also, the “Plant response rating, Ducksalad (0 to 100 scale, 0 is no effect and 100 is complete control)” value in experiment [20] amounted to 70.

With `CC(C)OC(=O)C1C=CC(NC(=O)C2(C)CN(c3cc(F)cc(F)c3)C(=O)O2)C1` (stereo not shown) [Compound 52], the “Horseweed plant response rating” value in experiment [1] was 100. Further, the “Kochia plant response rating” value in experiment [2] came to 70. In addition, the “Galium plant response rating” value in [3] is on record as 80. In experiment [4], the “Blackgrass plant response rating” value worked out at 90. The “Foxtail, Giant plant response rating” value in experiment [5] was 90. In addition, the “Amaranth, Palmer plant response rating” value in experiment [6] is given as 90. Also, the “Ragweed plant response rating” value in [7] is recorded as 70. The “Ryegrass, Italian plant response rating” value in experiment [8] stood at 60. Further, the “Barnyardgrass plant response rating” value in experiment [9] is listed as 100. Further, the “Kochia plant response rating (0 to 100 scale)” value in experiment [10] is 100. Besides, the “Blackgrass plant response rating (0 to 100 scale)” value in experiment [11] is given as 90. Further, the “Foxtail, Giant plant response rating (0 to 100 scale)” value in [12] is 100. Moreover, the “Amaranth, Palmer / Pigweed, Palmer plant response rating (0 to 100 scale)” value in experiment [13] turned out to be 100. The “Ragweed plant response rating (0 to 100 scale)” value in experiment [14] is 90. In addition, the “Ryegrass, Italian plant response rating (0 to 100 scale)” value in experiment [15] is 100. Further, in experiment [16], the “Barnyardgrass plant response rating (0 to 100 scale)” value was 100. For the same compound, the “Plant response rating, Sedge, Umbrella (0 to 100 scale, 0 is no effect and 100 is complete control)” value in [17] came out at 90. Also, the “Plant response rating, Rice (0 to 100 scale, 0 is no effect and 100 is complete control)” value in experiment [18] stood at 65. For the same compound, the “Plant response rating, Barnyardgrass (0 to 100 scale, 0 is no effect and 100 is complete control)” value in [19] is given as 75. In experiment [20], the “Plant response rating, Ducksalad (0 to 100 scale, 0 is no effect and 100 is complete control)” value came out at 60.
